Laboratory results published in patent US5843904A, “Inhibitors of interleukin-1βconverting enzyme” (Vertex Pharmaceuticals, Inc., priority 1995, dated 1998).
Non-standard residues stand in square brackets, D forms with d. Residues, ends and D or L forms follow the SMILES beside them. No end group written: not given here. *: point of attachment. 4Abz = Nc1ccc(C(=O)O)cc1; Nphe = O=C(O)CNCc1ccccc1; Bz = O=C(c1ccccc1)*; CH2Cl = ClC*

Key:
[1] = biological target: T1, ICE (Homo sapiens, UniProt P29466); experiment: Inhibition of ICE: enzyme assay with UV-visible substrate (Succinyl-Tyr-Val-Ala-Asp-pNitroanilide); type: biochemical; details: UV-visible substrate assay of Example 1; pH 8.1, 37° C., 80 μM substrate
T1 construct: The active enzyme exists as a tetramer of two p20 and two p10 subunits
T1 sequence (P29466 120-297 limits assumed): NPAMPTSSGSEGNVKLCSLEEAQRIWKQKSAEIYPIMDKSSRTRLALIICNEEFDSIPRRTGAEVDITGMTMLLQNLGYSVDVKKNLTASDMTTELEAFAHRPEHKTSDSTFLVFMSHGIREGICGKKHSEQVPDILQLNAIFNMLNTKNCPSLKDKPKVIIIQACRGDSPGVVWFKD
T1 sequence (P29466 317-404 limits assumed): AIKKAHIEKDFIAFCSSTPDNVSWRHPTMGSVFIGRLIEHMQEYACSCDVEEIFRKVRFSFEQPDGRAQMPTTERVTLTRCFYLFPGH
Source text: The term "Ki " refers to a numerical measure of the effectiveness of a compound in inhibiting the activity of a target enzyme such as ICE. Lower values of Ki reflect higher effectiveness. The Ki value is a derived by fitting experimentally determined rate data to standard enzyme kinetic equations (see I. H. Segel, Enzyme Kinetics, Wiley-Interscience, 1975).
1. Enzyme assay with UV-visible substrate
This assay is run using an Succinyl-Tyr-Val-Ala-Asp-pNitroanilide substrate. Synthesis of analogous substrates is described by L. A. Reiter (Int. J. Peptide Protein Res. 43, 87-96 (1994)). The assay mixture contains:
65 μl buffer (10 mM Tris, 1 mM DTT, 0.1% CHAPS @pH 8.1)
10 μl ICE (50 nM final concentration to give a rate of ~1 mOD/min)
5 μl DMSO/Inhibitor mixture 20 μl 400 μM Substrate (80 μM final concentration)
100 μl total reaction volume
The visible ICE assay is run in a 96-well microtiter plate. Buffer, ICE and DMSO (if inhibitor is present) are added to the wells in the order listed. The components are left to incubate at room temperature for 15 minutes starting at the time that all components are present in all wells. The microtiter plate reader is set to incubate at 37° C. After the 15 minute incubation, substrate is added directly to the wells and the reaction is monitored by following the release of the chromophore (pNA) at 405-603 nm at 37° C. for 20 minutes. A linear fit of the data is performed and the rate is calculated in mOD/min. DMSO is only present during experiments involving inhibitors, buffer is used to make up the volume to 100 μl in the other experiments.
The following Ki values were determined for compounds 706, 710, 719, 720, 725-727, 729, 731, 733, 743, 745, and 747-757 using the assay described in Example 1.

[2] = tested on: primary cells or cell lines; details: inhibition of one or more ICE homologs; cited from earlier work

Compound: CC(C)[C@H](NC(=O)c1nccc2ccccc12)C(=O)N(CC(=O)N[C@H](C=O)CC(=O)O)Cc1ccccc1 [Compound 748, 3(S)-(2(S)-(Benzyl-(2-((isoquinoline-1-carbonyl)amino)-3-methylbutyryl)amino)acetylamino)-4-oxo-butyric Acid]
- Ki [1]: 0.006 µM

Compound: CC(C)[C@H](NC(=O)c1ccc(Cl)cc1)C(=O)N(CC(=O)N[C@@H](CC(=O)O)C(=O)c1ncc(-c2c(Cl)cccc2Cl)o1)C1Cc2ccccc2C1 [Compound 733]
- Ki [1]: 0.0075 µM

Compound: COc1cc(C(=O)C(=O)N[C@H](C(=O)N(CC(=O)N[C@H](C=O)CC(=O)O)Cc2ccccc2)C(C)C)cc(OC)c1OC [Compound 752]
- Ki [1]: 0.062 µM

Compound: CC(C)[C@H](NC(=O)c1ccccc1)C(=O)N(CC(=O)N[C@@H](CC(=O)O)C(=O)c1nc2cc(F)cc(Cl)c2o1)Cc1ccccc1 [Compound 719]
- Ki [1]: 0.02 µM

Compound: CC(C)[C@H](NC(=O)c1cccc2ccccc12)C(=O)N(CC(=O)N[C@H](C=O)CC(=O)O)Cc1ccccc1 [Compound 749, 3(S)-(2(S)-(Benzyl-(2-((napthalene-1-carbonyl)amino)-3-methylbutyryl)amino)acetylamino)-4-oxo-butyric Acid]
- Ki [1]: 0.007 µM

Compound: CC(C)[C@H](NC(=O)c1ccccc1)C(=O)N(CC(=O)N[C@H](C=O)CC(=O)O)Cc1cccc(NS(C)(=O)=O)c1 [Compound 745]
- Ki [1]: 0.045 µM

Compound: Tyr-Val-Ala-Asp-chloromethylketone (YVAD-CH2Cl)
- inhibition of apoptosis [2]: inhibition of apoptosis

Compound: CC(C)[C@H](NC(=O)c1ccccc1)C(=O)N(CC(=O)N[C@@H](C=O)CCC(=O)O)Cc1ccccc1 [Compound 754, 4(R)-(2(S)-((2-Benzoylamino-3-methylbutyryl)benzylamino)acetylamino)-5-oxopentanoic Acid] (Bz-Val-[Nphe]-[dE]-aldehyde)
- Ki [1]: 2.5 µM

Compound: CC(C)[C@H](NC(=O)c1ccccc1)C(=O)N(CC(=O)N[C@H](C=O)CC(=O)O)Cc1ccccc1 [Compound 706, 3(S)-(2-((2(S)-Benzoylamino-3-methylbutyryl)benzylamino)acetylamino)-4-oxo-butyric Acid] (Bz-Val-[Nphe]-Asp-aldehyde)
- Ki [1]: 0.069 µM

Compound: CC(C)[C@H](NC(=O)OCc1ccccc1)C(=O)N(CC(=O)N[C@H](C=O)CC(=O)O)C1Cc2ccccc2C1 [Compound 757, 3(S)-(2-((2(S)-(Benzyloxycarbonylamino-3-methylbutyryl)-indan-2-yl)amino)acetylamino)-4-oxobutyric Acid]
- Ki [1]: 0.17 µM

Compound: CC(C)[C@H](NC(=O)c1ccccc1)C(=O)N(CC(=O)N[C@@H](CC(=O)O)C(=O)c1nc2cc(Cl)cc(Cl)c2o1)Cc1cccnc1 [Compound 720]
- Ki [1]: 0.033 µM

Compound: CC(C)[C@H](NC(=O)c1ccc(Cl)cc1)C(=O)N(CC(=O)N[C@H](C=O)CC(=O)O)Cc1ccccc1 [Compound 750, 3(5)-(2-((2(S)-(4-Chlorobenzoyl)amino-3-methylbutyryl)benzylamino)acetylamino)-4-oxo-butyric Acid]
- Ki [1]: 0.09 µM

Compound: CC(C)[C@H](NC(=O)C(=O)c1ccccc1)C(=O)N(CC(=O)N[C@H](C=O)CC(=O)O)Cc1ccccc1 [Compound 753, 3(S)-(2(S)-(Benzyl(3-methyl-2-(2-oxo-2-phenylacetylamino)butyryl)amino)acetylamino)-4-oxo-butyric Acid]
- Ki [1]: 0.053 µM

Compound: CC(=O)Nc1cccc(CN(CC(=O)N[C@H](C=O)CC(=O)O)C(=O)[C@@H](NC(=O)c2ccccc2)C(C)C)c1 [Compound 743, 3(S)-(2-((3-Acetylaminobenzyl)-(2(S)-benzoylamino-3-methylbutyryl)amino)acetylamino)-4-oxo-butyric Acid]
- Ki [1]: 0.06 µM

Compound: CC(C)[C@H](NC(=O)c1ccccc1)C(=O)N(CC(=O)N[C@@H](CC(=O)O)C(=O)c1nc2cc(F)cc(F)c2o1)C1Cc2ccccc2C1 [Compound 726]
- Ki [1]: 0.015 µM

Compound: CC(C)[C@H](NC(=O)c1nccc2ccccc12)C(=O)N(CC(=O)N[C@@H](C=O)CCC(=O)O)Cc1ccccc1 [Compound 755, 4(R)-(2(S)-(Benzyl-(2-((isoquinoline-1-carbonyl)amino)-3-methylbutyryl)amino)acetylamino)-5-oxopentanoic Acid]
- Ki [1]: 0.39 µM

Compound: CC(C)(C)[C@H](NC(=O)c1nccc2ccccc12)C(=O)N(CC(=O)N[C@H](C=O)CC(=O)O)Cc1ccccc1 [Compound 747, 3(S)-(2(S)-(Benzyl-(2-((isoquinoline-1-carbonyl)amino)-3,3-dimethylbutyryl)amino)acetylamino)-4-oxo-butyric Acid]
- Ki [1]: 0.024 µM

Compound: CC(=O)Nc1ccc(C(=O)N[C@H](C(=O)N(CC(=O)N[C@H](C=O)CC(=O)O)Cc2ccccc2)C(C)C)cc1 [Compound 751, 3(S)-(2-((2(S)-(4-Acetylaminobenzoyl)amino-3-methylbutyryl)benzylamino)acetylamino)-4-oxo-butyric Acid] (Ac-[4Abz]V[Nphe]D-aldehyde)
- Ki [1]: 0.071 µM
